The record followed here is patent publication US20130172324A1, “METHOD FOR TREATING CARDIOVASCULAR DISEASES USING RHO KINASE INHIBITOR COMPOUNDS” (priority 2008, published 2013).

One series deals with rat pulmonary artery. As to the kind of experiment: Pulmonary arterial relaxation assay (norepinephrine precontracted rings).
In the next series the test system is rat aorta. As to the kind of experiment: Aortal relaxation assay (norepinephrine precontracted rings). The conditions noted are these: 100 μM compound, 100 nM norepinephrine; FIG. 4B. As for the experimental part:
This assay is a model for selecting compounds for treating diseases that involve constriction of arterial smooth muscle, such as atherosclerosis and systemic hypertension. The effects of compounds to induce relaxation of pre-contracted rat pulmonary artery and rat aorta were determined. […] Pulmonary artery or aorta were excised, cleaned of connective tissue and cut into cylindrical segments of 2-3 mm length. The preparations were mounted in a tissue bath by tying two threads of surgical silk through the lumen of the vessel. One silk was used to anchor the tissue to a metal wire in the bath and the other silk was connected to a force transducer. […] Contractile tensions were measured using an isometric force transducer (Grass Instruments) and signals were analyzed using specialized software (Chart v5.5, ADInstruments). The preparations were allowed to equilibrate at a resting tension of 0.1 to 0.2 gm for pulmonary artery and 2.0 gm for aorta prior to two challenges with 80 mM KCl to assess tissue viability. […] For pulmonary artery, compounds were added cumulatively to the bath every 30 minutes and reductions in tension were recorded. Basal tension was subtracted from all values and data was reported as a percentage of the maximal norephinephrine-induced contraction. […] For aorta, a single dose of compound was added and reductions in tension were recorded.

The test system of a further series is rat trachea rings. As to the kind of experiment: Tracheal relaxation assay (carbachol precontracted rings).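 As to all read-outs here: isometric tension of rat tracheal rings in Krebs buffer with 1 µM indomethacin, compounds added cumulatively at 30 min intervals, basal tension subtracted, fit to Hill equation.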 As to conditions: for IC50: Rattus norvegicus, read-out: IC50 Avg.
A further series relates to murine eosinophils. In words: Eotaxin-induced murine eosinophil chemotaxis. It counts as cell-based, mouse. The conditions noted are these: 10 nM eotaxin challenge; FIG. 1. The protocol:
Bronchoalveolar lavage was collected from ovalbumin sensitized and challenged mice in a volume of 2.5 mL lavage buffer. The lavage buffer was 0.9% saline with 10% fetal bovine serum. The pooled lavages were maintained on ice until use. The murine eosinophils were isolated using MACS cell separation (Miltenyi Biotech) by depletion of B cells and T cells by positive selection following incubation with antibody conjugated magnetic beads specific for CD45-R (B220) and CD90 (Thy 1.2), which bind B cells and T cells, respectively.
Eosinophil chemotaxis was assessed using a modified Boyden Chamber (Neuroprobe, 96-well) with a 5 μm pore membrane. The ability of the tested compounds to block chemotaxis induced by a 10 nM eotaxin challenge (mouse) or 1 nM eotaxin challenge (human) during one hour incubation at 37° C. with 5% CO2 was assessed. Chemotaxis was quantified via microscopy by counting the number of migrated cells in at least 3 view fields per treatment.

The next series deals with human eosinophils. In words: Eotaxin-induced human eosinophil chemotaxis. The conditions noted are these: 1 nM eotaxin challenge; FIG. 2. The class given is cell-based. An excerpt:
Peripheral blood from healthy human volunteers was collected and the PMNs separated via Ficoll-paque density centrifugation followed by hypotonic lysis of the red blood cells. Subsequently, the human eosinophils were isolated from the cell suspension via StemCell Technologies Human Eosinophil Enrichment kit (Cat. No 19256) according to the manufacturer's recommendations. Briefly, unwanted cells were specifically labeled with dextran-coated magnetic nanoparticles using bispecific Tetrameric Antibody Complexes (TAC) directed against cell surface antigens on human blood cells: […] The unwanted cells are then separated from the unlabelled eosinophils using the EasySep® magnetic isolation procedure.

Series [1] concerns ova-sensitized, ova-challenged mice. As to the kind of experiment: Bronchodilator assay in ovalbumin-sensitized mice (Penh, methacholine). The class given is in vivo, mouse. As for the experimental part:
Male BALB/c mice were ordered from Charles River Laboratories (Raleigh, N.C.). The animals were approximately 19 to 21 grams at time of receipt. Upon arrival, the animals were randomized into groups of five males per cage and assigned to a dosing group. Animals were quarantined for 7 days under test conditions. They were observed daily for general health status and ability to adapt to the water bottles.
Animals were sensitized on day 0 and 14 of study by an intraperitoneal injection with 20 μg of ovalbumin (ova) and 2.0 mg aluminum hydroxide (alum) which initiates the development of a specific T-helper (Th) cells type 2 resulting in asthmatic animals. One group of animals received an injection of saline to use as non-asthmatic control animals. All animals were challenged with aerosolized 1% ova once daily for 25 minutes on days 28, 29, and 30 (Zosky, et al. Respiratory Research. 2004; 5:15). Aerosol challenge consists of using an Aerogen Aeroneb nebulizer and controller with a particle size of 4-6 μm mass median aerodynamic diameter (MMAD) with a distribution of 400 μl per minute. This aerosol challenge is necessary to target the Th2-driven allergic inflammation in the lower airways.
The test compounds and the control vehicle were administered to animals on the day of airway hyperreactivity evaluation 30 minutes to 1 hour before the evaluation to determine the bronchodilator effects of the compounds according to the bronchodilator dosing paradigm (FIG. 8). Compounds were administered p.o. (orally), i.p. (intraperitoneally) at 15 μMol/kg unless otherwise noted (Table 6). Alternatively, compounds were administered i.t. (intratracheally) at varying doses as shown (FIG. 9). On day 32 of the experiment, airway hyperreactivity was evaluated by placing conscious, unrestrained animals in a whole body plethysmometer (Buxco Wilmington, N.C.) and exposing them to escalating doses of nebulized methacholine, a known bronchial constrictor which acts through the muscarinic receptors of the lungs, (doses: 0.325-50 mg/ml). Exposure to the methacholine doses consisted of a 3 minute period during which a nebulizer was aerosolizing the methacholine and an additional 3 minute period following the cessation of nebulization. Over this 6 minute period, the plethysmometer monitors and generates numerical values for all parameters of the breath pattern. Enhanced pause (Penh), a unitless index of airway hyperreactivity, is derived from the expiratory side of the respiratory waveform measured via the plethysmograph and is used as an indirect measure of airway resistance and hyperreactivity. […] Following the methacholine dose response, all animals were anesthetized, bled and euthanized.
Within each experiment, a mouse was given a single compound and exposed to increasing doses of methacholine [0 (baseline), 0.375, 0.75, 1.5, 3, 6, 12, 25, 50 mg/ml]. The Penh value at each of the dose levels of methacholine represents the 6-minute average response. Change from baseline (CFB) in Penh was calculated at each methacholine dose and the area under the curve (AUC) for these CFB values was calculated using the trapezoidal rule. This same approach was applied for each mouse across multiple experiments.
For statistical analyses, a linear mixed-effects model where the response was the log 10 transformed value of AUC described above was used. Data from equal experimental conditions across experiments performed on different days were pooled for statistical analysis and data reporting. The various compounds were compared adjusting for the log 10-transformed baseline value of Penh and the chamber (1 of 10) of the plethysmometer each mouse was contained in during an experiment. A random intercept for each experiment was assumed to account for possible similarities of the results obtained from a given experiment (i.e., as a “blocking effect”). […] Computations were performed using PROC MIXED (SAS Version 9.1). […]

Series [2] shares this test system. As to the kind of experiment: In vivo anti-inflammatory assay in ovalbumin-sensitized mice (BALF eosinophils and cytokines). Also noted: species or system mouse. An excerpt:
A mouse model of asthma via ovalbumin sensitization was created as described in Example 23. The anti-inflammatory dosing paradigm (FIG. 10) was utilized to evaluate the anti-inflammatory effects of experimental compounds. The anti-inflammatory dosing paradigm consists of dosing the animals once a day starting on day 27 and finishing on either day 30 or 31 (1 hr prior to the aerosolized ovalbumin challenges on days 28 to 30) but not on day 32 when hyperreactivity evaluation occurs.
Bronchoalveolar lavage fluid (BALF) was collected by infusing 3.0 ml of saline with 10% fetal calf serum into the lungs via the trachea and then withdrawing the fluid. The total amount of cells/ml of BALF fluid was determined via manual cell count on hemocytometer. The BALF was centrifuged, supernatant removed and analyzed for cytokine concentrations as described below, and cell pellet reconstituted in 500 μL of fluid. Cytospin slides were prepared from the cell pellet using 100 μL of fluid and spinning samples for 5 minutes at 5000 rpms in a cytospin centrifuge. Following Hema3 stain, relative percentages of individual leukocytes were determined on a 200 cell count for each sample. The final concentration of individual leukocyte cell types per ml of BALF was determined by multiplication of the relative percentage of individual leukocytes with the total amount of cells/ml of BALF fluid.
The concentrations of cytokines in the BALF samples were determined using commercially available Bio-plex kits (Bio-Rad) for the detection of mouse IL-5, IL-13, and Eotaxin. The analysis of cytokine levels was measured using the Bio-Plex 200 (Bio-Rad) system according to the manufacturer's instructions.

Series [3] has the same test system. As to the kind of experiment: Prevention of airway hyperreactivity development, anti-inflammatory dosing paradigm (Penh). As to conditions: oral 15 μMol/kg once a day during days 27 to 31; methacholine on Day 32. It counts as in vivo, mouse.
Series [4] can be described thus: Rat oral pharmacokinetics (plasma). The class given is in vivo.
Experimental: Plasma (EDTA K2 anticoagulant) was collected from male, cannulated, CD Sprague Dawley rats to determine the pharmacokinetics of formulations containing compound inhibitors of Rho kinase. Each animal was dosed orally with a 4 ml/kg solution or suspension of each test compound in 10 mM acetate buffered saline, pH 4.5 at a final concentration range of 20-30 μmol/kg. Blood was collected at 0.25, 0.5, 1, 2, 4, 6, 8, and 24 hours. Plasma samples were assayed for the concentration of the test compound using an on-line, solid phase extraction LC/MS/MS analysis system.
Samples were analyzed on a QSTAR Elite, hybrid quadrupole time-of-flight mass spectrometer (Applied Biosystems, Framingham, Mass.) coupled with a Symbiosis Pharma integrated, on-line SPE-HPLC system (Spark Holland Inc., Plainsboro, N.J.). Analyst QS 2.0 software was used for instrument control, data acquisition and processing. […] Mobile Phase A consisted of 0.1% ammonium hydroxide in water and Mobile Phase B consisted of 0.1% formic acid in acetonitrile. Pharmacokinetic analyses were performed using WinNonlin software version 5.2 (Pharsight Corporation, Mountain View, Calif.).
As determined from the plasma concentration versus time curves, the time to peak and peak exposure are represented by the values Tmax and Cmax, respectively. The AUC values (nM*hr) shown were calculated as the areas under the plasma concentration versus time curves from time zero through the time of the last observable value and represent the total exposure of the compound over the course of the study. Half-life values or the amount of time required for the plasma levels of the compound to decline to half the initial value are represented as t1/2.
The test system of series [5] is A-10 rat thoracic aorta cells. In words: PDGF-stimulated smooth muscle cell proliferation assay (BrdU). The conditions noted are these: 10 μM compound, 10 ng/mL PDGF, A-10 cells, percent of total challenge-stimulated proliferation. The class given is cell-based.
Experimental: Effects on cell proliferation were measured using a bromodeoxyuridine (BrdU) incorporation assay. […] Serum free media containing 0.1% BSA was added to the cells. 24 hours later the media was removed and replaced with warmed serum free media. […] Proliferation was then monitored using the BrdU Cell Proliferation Assay, HTS (Calbiochem cat. #HTS01). BrdU was allowed to incorporate into cells for 24 hours prior to the addition of fixative/denaturing solution and the fluorometric detection of incorporated BrdU using a BrdU antibody as per manufacturer's directions. Data are reported as a percent of the PDGF-stimulated BrdU incorporation.
[6] abbreviates: rat, oral, 20-30 μmol/kg, plasma, mean of n = 3.

Experimental for rat pulmonary artery: Pulmonary artery or aorta were excised, cleaned of connective tissue and cut into cylindrical segments of 2-3 mm length. The preparations were mounted in a tissue bath by tying two threads of surgical silk through the lumen of the vessel. One silk was used to anchor the tissue to a metal wire in the bath and the other silk was connected to a force transducer. […] Contractile tensions were measured using an isometric force transducer (Grass Instruments) and signals were analyzed using specialized software (Chart v5.5, ADInstruments). The preparations were allowed to equilibrate at a resting tension of 0.1 to 0.2 gm for pulmonary artery and 2.0 gm for aorta prior to two challenges with 80 mM KCl to assess tissue viability. After washing, tissues were treated with 100 nM norepinephrine for 5 to 10 minutes to induce a contractile response. For pulmonary artery, compounds were added cumulatively to the bath every 30 minutes and reductions in tension were recorded. Basal tension was subtracted from all values and data was reported as a percentage of the maximal norephinephrine-induced contraction. Data were fit to the Hill equation using GraphPad Prism v5 software. For aorta, a single dose of compound was added and reductions in tension were recorded.
Experimental for rat trachea rings: The effects of compounds to induce relaxation of pre-contracted rat trachealis were determined. […] Trachea were excised, cleaned of connective tissue and cut into cylindrical segments of 2-3 mm length. Two stainless steel wires were guided through the lumen of the tracheal ring. One wire was fixed in the tissue bath and the other was connected to a force transducer via surgical silk. […] Indomethacin (1 μM), a cyclooxygenase inhibitor, was added to the Krebs buffer and was present throughout the experiments. Contractile tensions were measured using an isometric force transducer (Grass Instruments) and signals were analyzed using specialized software (Chart v5.5, ADInstruments). The preparations were allowed to equilibrate at a resting tension of 0.3 to 0.5 gm prior to two challenges with 60 mM KCl to assess tissue viability. After washing, tissues were treated with 1 μM carbachol for 10 to 15 minutes to induce a contractile response. Test Compounds were added cumulatively to the bath every 30 minutes and reductions in tension were recorded. Basal tension was subtracted from all values and data were reported as a percentage of the maximal carbachol-induced contraction. Data were fit to the Hill equation using GraphPad Prism v5 software.

In the case of `OCCOc1cccc(CN2CC[C@@H](Nc3cccc4cnccc34)C2)c1` [Compound 2.039, (R)-2-(3-((3-(isoquinolin-5-ylamino)pyrrolidin-1-yl)methyl)phenoxy)ethanol], the “relaxant response in precontracted pulmonary artery” value in the series with rat pulmonary artery (100 nM norepinephrine precontracted, FIG. 4A) is on record as “fully relaxed”. For the same compound, the IC50 came out at 151 nM in the series on rat pulmonary artery (Rattus norvegicus, read-out: IC50 for compound-induced relaxation) and 343 nM in the series with rat trachea rings. In addition, the “norepinephrine-induced contractile response (tension) of aortal ring” value with rat aorta is given as “fully reversed”. In the series with rat trachea rings (1 μM carbachol), the “Percentage of carbachol-induced contraction at 10 μM compound, Avg %” value (“Percentage … at 10 μM compound, Avg %” for short) is 6.2%.
As to `CS(=O)(=O)Nc1cccc(CN2CC[C@@H](Nc3cccc4cnccc34)C2)c1` [Compound 2.038, (R)-N-(3-((3-(isoquinolin-5-ylamino)pyrrolidin-1-yl)methyl)phenyl)methanesulfonamide], the “chemotactic response of murine eosinophils” value with murine eosinophils is given as “inhibited”. The “chemotactic response of human eosinophils” value with human eosinophils is on record as “inhibited”. For the same compound, the “Percentage of carbachol-induced contraction at 1 μM compound, Avg %” value in the series with rat trachea rings (1 μM compound, 1 μM carbachol) turned out to be 57.2%. In the series on rat trachea rings (1 μM carbachol), the “Percentage … at 10 μM compound, Avg %” value was 10.2%. The IC50 in the series on rat trachea rings came to 272 nM. Besides, the “Trachael Ring Contraction, %” value in the series on rat trachea rings (average percentage of carbachol-induced rat tracheal ring contraction at 1 μM of test compound) is 57%. Further, the “log10AUC (penh)” value in series [1] (15 μmol/kg oral, bronchodilator dosing paradigm) is on record as 2.0813. Further, the “reduction in airway hyperresponsiveness” value in series [1] (oral doses) is given as “statistically significant reduction”. Also, the “concentration of IL-5 in BALF” value in series [2] (15 μmol/kg/oral on days 27 to 31, FIG. 13) is “reduced levels”. The “concentration of Eotaxin in BALF” value in [2] (15 μmol/kg/oral on days 27 to 31, FIG. 14) is recorded as “reduced levels”. The “concentration of IL-13 in BALF” value in series [2] (15 μmol/kg/oral on days 27 to 31, FIG. 15) is “reduced levels”. The “eosinophils per ml of BALF (airway eosinophil infiltration)” value in series [2] (dosed orally to day 31, anti-inflammatory dosing paradigm, FIG. 11) is recorded as “reduced”. In addition, in series [3], the “airway hyperreactivity to methacholine” value is recorded as “prevention of airway hyperreactivity”. Moreover, in [4] (oral dosing, refers to Table 13 and Table 15), the “plasma and lung tissue concentrations after oral dosing” value is “high plasma and lung tissue concentrations”.
For the compound `CSc1ccc(CN2CC[C@@H](Nc3cccc4cnccc34)C2)cc1` [Compound 2.026, (R)-N-(1-(4-(methylthio)benzyl)pyrrolidin-3-yl)isoquinolin-5-amine], the “Percentage … at 10 μM compound, Avg %” value with rat trachea rings (1 μM carbachol) is reported as 17.1%. In addition, the IC50 with rat trachea rings was found to be 2860 nM. Besides, the “Percent of PDGF Induced Proliferation at 10 μM Avg” value in series [5] is listed as 52.0%. Moreover, in series [4] (setting [6]), the “AUC (0-last)” value was “BLQ”, the Cmax entry was “BLQ”, the Tmax result is “BLQ” and the Vz_F result is given as “BLQ”. Further, in series [4] (setting [6]), the t½ entry was “BLQ”.
